Assay results taken from patent publication US20250296942A1, “Phosphonate-Based Coordination Complexes and Methods of Preparation and Use Thereof” (University of Puerto Rico, priority 2021, published 2025).
Several values for one entry are separate records, joined by “and”; a condition that tells them apart may be missing. Equal values may be shown once.

Key:
[1] = system: human osteoblast hFOB 1.19 cell line; assay: AlamarBlue cytotoxicity, 2,2′-BPBPA series, hFOB 1.19; assay type: cell-based
Description: (§1) Cell culture methods. MCF-7 and MDA-MB-231 were incubated using DMEM at 37° C. in 5% CO2. The hFOB 1.19 cell lines were incubated with DMEM: F12 at 34° C. in 5% CO2.
(§2) Cell lines were supplemented using 10% FBS and 1% Pen-Strep. The media was replaced twice per week. Cell passages were carried out at 80% confluency.
(§3) Cell-based assays. Cell lines were seeded in 96 well plates at a density of 5x 10^3 cells/mL and incubated for 24 h before treatment. Cells were treated with 100 μL of 2,2′-BPBPA (0-400 μM), unloaded and loaded nano-Ca@2,2′-BPBPA (6.3-50 μM) for 24, 48, and 72 h.
(§4) Control groups were treated with media (DMEM or DMEM: F12) supplemented with 1% Pen-Strep. Cell viability was determined by employing AlamarBLue@. The media was replaced with 100 μL of 10% AlamarBlue® solution. After 24 h of incubation, the fluorescence was assessed at )max of 560 nm for excitation and 590 nm for emission.
(§5) Cell culture methods. MCF-7 and MDA-MB-231 were incubated using DMEM at 37° C. in 5% CO2. The hFOB 1.19 cell lines were incubated with DMEM: F12 at 34° C. in 5% CO2. Cell lines were supplemented using 10% FBS and 1% Pen-Strep. The media was replaced twice times per week. Cell passages were carried out at 80% confluency.
Seeding. […]
AlamarBlue@assay. […] Then, the fluorescence was assessed at 560 nm of excitation and λmax 590 nm of emission. […]

[2] = system: human breast cancer MCF-7 cell line; assay: AlamarBlue cytotoxicity, 2,2′-BPBPA series, MCF-7; assay type: cell-based
Description: as §1, §2, §3, §4, §5
Seeding. Cell lines were seeded in 96 well plates at a density of 5×10^3 cells/mL; cells were incubated for 24 h before each treatment.
Treatment. Cell lines were treated with 100 μL of 2,2′-BPBPA (0-400 μM), unloaded and loaded nano-Ca@2,2′-BPBPA (6.3-50 μM). Control groups were treated with media (DMEM or DMEM: F12) supplemented with 1% Pen-Strep. All cell-based assays were conducted for 24, 48, and 72 h of treatment. Experiments were performed in triplicate.
AlamarBlue@assay. To determine the cell viability, the media was removed and replaced with 100 μL of 10% AlamarBlue® solution. The 96 well plates were incubated for 4 h before the measurements. Then, the fluorescence was assessed at 560 nm of excitation and λmax 590 nm of emission. The IC50 curves for MCF-7, MDA-MB-231, and hFOB 1.19 cell lines treated with 2,2′-BPBPA are presented in FIGS. 211A-211C, 212A-212C, and 213A-213C.

[3] = Hydroxyapatite (HA) binding assay of RISE and nano-Ca@RISE
Description: Hydroxyapatite (HA) binding assay. For the binding assay of nano-Ca@RISE, 20 mg of hydroxyapatite (HA) were exposed to 3 mL of a nano-Ca@RISE in PBS solution (0.5 mg/mL), for 0-11 days at 37° C. As control groups, RISE and HA, both in PBS, were employed. Samples were collected each day from 11 consecutive days. After each time point, the supernatant was collected and centrifuged (1,500 rpm, 8 min). […]
The capacity of nano-Ca@RISE to bind to the main constituent of the bone microenvironment, HA, under simulated physiological conditions, was evaluated through a binding assay. […]. […] […]. Therefore, a calibration curve of nano-Ca@RISE in PBS was employed for quantification of the nanocrystal's concentration in the supernatant after the binding assay.
For the nano-Ca@RISE binding assay, 20 mg of hydroxyapatite (HA), were added to 3.00 mL of nano-Ca@RISE (0.5 mg/mL) in PBS solution. HA in PBS mixture, and the binding of RISE to HA, were used as control groups. The samples were left for 0-11 days at 37° C. and 300 rpm. As a comparative method, additional binding assay for RISE “as received” was conducted employing the same parameters as for the nanocrystals. The selected time points were: 1, 2, 3, 4, 5, 7, 8, 9, 10, and 11 days. The supernatant was collected after each time point, then centrifuged (1,500 rpm, 8 min), and absorbance measurements were performed at 206 nm to determine the binding percentage of RISE from the nano-Ca@RISE to HA. FIGS. S8.6.1 and S8.6.2 illustrate the binding curves of RISE and nano-Ca@RISE to HA in PBS.

N#Cc1ccc(C(c2ccc(C#N)cc2)n2cncn2)cc1 [LET, letrozole]
% RCL ([1]; 6.3-50 μM, 24, 48, 72 h): ~99%
% RCL ([2]; 6.3 μM, 24 h): about 100±2%
% RCL ([2]; 6.3 μM, 48 h): ~79 ±1%
% RCL ([2]; 6.3 μM, 72 h): ~74±3%
% RCL ([2]; 12.5 μM, 24 h): 100±2%
% RCL ([2]; 12.5 μM, 48 h): 71±3%
% RCL ([2]; 12.5 μM, 72 h): 68±2%
% RCL ([2]; 25 μM, 24 h): 100±1%
% RCL ([2]; 25 μM, 72 h): 46±2%
% RCL ([2]; 50 μM, 24 h): 99±1%
% RCL ([2]; 50 μM, 72 h): 40±1%

O=P(O)(O)C(O)(Cc1cccnc1)P(=O)(O)O [RISE, Monosodium risedronate hemipentahydrate]
time to reach maximum binding to HA ([3]; PBS): 8 days
maximum binding to HA ([3]; PBS pH 7.40, 37 °C, 0-11 days): 76%
bound to HA ([3]; PBS pH 7.40, 37 °C, 1 day): 18% and 17%

O=P(O)(O)c1ccc(-c2ccc(P(=O)(O)O)cn2)nc1 [2,2′-BPBPA, 2,2′-bipyridine-5,5′-bisphosphonic acid]
IC50 ([1]; Homo sapiens, Osteoblast, 72 h): > 188 µM
IC50 ([2]; Homo sapiens, MCF7, 72 h): 134 ± 2 µM
